SMILES strings stand for the structures. Numbers after ± are expanded uncertainties.

The values that follow come from the NIST ThermoML archive (doi:10.1021/je0499723).

Data set [1] can be described thus: xn = mol fraction of the nth substance listed. To be noted: Liquid.
For data set [2] the following is noted: Liquid; for Critical pressure: Direct measurement; for Critical temperature: Visual observation in an unstirred cell.

Consider `FCC(F)(F)F` [1,1,1,2-tetrafluoroethane] + COC(F)(F)F, for which the Critical density in data set [1] (x2 = 0) turned out to be 508 ± 12 kg/m3.
Take `FC(C(F)(F)F)C(F)(F)F` [1,1,1,2,3,3,3-heptafluoropropane]: in data set [2], the Critical density is 598 ± 14 kg/m3, the Critical pressure is given as 2930 ± 12 kPa and the Critical temperature worked out at 375 ± 0.16 K.
As for `COC(F)(F)F` [trifluoromethoxymethane] + FC(F)C(F)C(F)(F)F, in data set [1] (x1 = 1), the Critical density was found to be 459 ± 11 kg/m3.
As to `COC(F)(F)F` [trifluoromethoxymethane] + FCC(F)(F)F, the Critical density in data set [1] (x1 = 0.1649) stood at 508 ± 12 kg/m3; in data set [1] (x1 = 0.2914), 492 ± 11 kg/m3; in data set [1] (x1 = 0.4897), 486 ± 11 kg/m3; in data set [1] (x1 = 0.6543), 480 ± 11 kg/m3; in data set [1] (x1 = 0.8151), 468 ± 11 kg/m3; in data set [1] (x1 = 1), 459 ± 11 kg/m3.
With `FC(F)C(F)C(F)(F)F` (stereo not drawn) [1,1,1,2,3,3-hexafluoropropane] + COC(F)(F)F, the Critical density in data set [1] (x2 = 0) was determined as 562 ± 13 kg/m3; in data set [1] (x2 = 0.2452), 545 ± 13 kg/m3; in data set [1] (x2 = 0.3348), 541 ± 13 kg/m3; in data set [1] (x2 = 0.5434), 518 ± 12 kg/m3; in data set [1] (x2 = 0.7338), 497 ± 12 kg/m3; in data set [1] (x2 = 0.8497), 476 ± 11 kg/m3.
With `COC(F)(F)F` [trifluoromethoxymethane] + FC(F)C(F)(F)F, the Critical density worked out at 555 ± 13 kg/m3 in data set [1] (x1 = 0.1859); 523 ± 12 kg/m3 in data set [1] (x1 = 0.3073); 515 ± 12 kg/m3 in data set [1] (x1 = 0.5185); 491 ± 11 kg/m3 in data set [1] (x1 = 0.7094); 479 ± 11 kg/m3 in data set [1] (x1 = 0.8305); 459 ± 11 kg/m3 in data set [1] (x1 = 1).
As for `COC(F)(F)F` [trifluoromethoxymethane] + FC(C(F)(F)F)C(F)(F)F, the Critical density in data set [1] (x1 = 0.1647) was determined as 574 ± 13 kg/m3; in data set [1] (x1 = 0.3999) it was 543 ± 13 kg/m3; in data set [1] (x1 = 0.4999), 526 ± 12 kg/m3; in data set [1] (x1 = 0.6664) it was 508 ± 12 kg/m3; in data set [1] (x1 = 0.8165), 486 ± 11 kg/m3; in data set [1] (x1 = 1) it was 459 ± 11 kg/m3.
Regarding `FC(C(F)(F)F)C(F)(F)F` [1,1,1,2,3,3,3-heptafluoropropane] + COC(F)(F)F, the Critical density in data set [1] (x2 = 0) is recorded as 598 ± 14 kg/m3.
Consider `COC(F)(F)F` [trifluoromethoxymethane], for which, in data set [2], the Critical density is given as 459 ± 11 kg/m3, the Critical pressure was found to be 3640 ± 12 kPa and the Critical temperature was 377.92 ± 0.16 K.
Taken in the same sequence, the figures for `FCC(F)(F)F` [1,1,1,2-tetrafluoroethane] were 508 ± 12 kg/m3, 4053 ± 12 kPa and 374.13 ± 0.16 K.
Consider `FC(F)C(F)C(F)(F)F` (stereo not drawn) [1,1,1,2,3,3-hexafluoropropane], for which, in data set [2], the Critical density was found to be 562 ± 13 kg/m3, the Critical pressure was 3416 ± 12 kPa and the Critical temperature came to 412.41 ± 0.16 K.
The corresponding values for `FC(F)C(F)(F)F` [pentafluoroethane] are 560 ± 13 kg/m3, 3617 ± 12 kPa and 339.2 ± 0.16 K.
For the compound `FC(F)C(F)(F)F` [pentafluoroethane] + COC(F)(F)F, the Critical density in data set [1] (x2 = 0) amounted to 560 ± 13 kg/m3.
